# According to patent publication US20230331707A1, “PROGRAMMED CELL NECROSIS INHIBITOR, PREPARATION METHOD THEREFOR, AND USE THEREOF” (Shanghai Institute of Organic Chemistry, Chinese Academy of …, priority 2020, published 2023):
# Where two headings read alike, the source gives them in different places.
# Tests used:
# [1] = system: L929 cells; test: Inhibition of TNF-induced programmed necrosis of L929 cells (Cell Titer-Glo viability); format: cell-based, mouse
# Summary of the method: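 Mouse L929 fibroblasts were diluted to 6.25×10^4/ml, plated at 40 μl per well in 384-well plates, and incubated 12 hours at 37° C., 5% CO2. Compounds were added, with SM164 (500 nM) for the combination arm, and pretreated 1 h before TNFα (500 ng/mL). After 14 h, viability was read by Cell Titer-Glo luminescence against unstimulated DMSO controls, and EC50 values were fitted in Prism Graphpad.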
# [2] = biological target: T1, RIPK1(1-330) protein (Homo sapiens, UniProt Q13546); test: RIPK1(1-330) kinase activity (ADP-Glo); format: biochemical; settings: read-out: effective semi-inhibitory concentration on RIPK1 kinase
# T1 construct: testing the effect of compound QY-10-40 on the kinase activity of RIPK1(1-330) protein; made in house
# T1 sequence (Q13546 1-330): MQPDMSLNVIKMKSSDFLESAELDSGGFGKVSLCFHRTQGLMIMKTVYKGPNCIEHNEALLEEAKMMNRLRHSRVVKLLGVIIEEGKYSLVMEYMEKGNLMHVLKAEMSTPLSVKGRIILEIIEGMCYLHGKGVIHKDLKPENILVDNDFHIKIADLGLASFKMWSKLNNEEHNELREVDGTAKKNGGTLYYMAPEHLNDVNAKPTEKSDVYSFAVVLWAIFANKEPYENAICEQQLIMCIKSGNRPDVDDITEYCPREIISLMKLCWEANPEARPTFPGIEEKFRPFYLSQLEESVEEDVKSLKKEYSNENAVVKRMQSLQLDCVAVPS
# Protocol: Methods: RIPK1 (1-330) protein with a final concentration of 2 μM and ATP (IX kinase buffer) with a corresponding concentration, final concentration of 5 μL, were added to the 384-well plate, respectively. Each group at least set up triplicate wells and reacted for 2 h at 37° C. 5 μL ADP-Glo reagent was added, which was used to stop kinase reaction and remove residual ATP in reaction system. The plates was placed at room temperature for 40 min. 10 μL kinase detection reagent was added, which was used to convert ADP into ATP and introduce luciferase and luciferin for ATP detection into the system. The reaction was carried out at room temperature for 1 h. 7500 Fast Real-Time PCR System was used to detect luminescence. The IC50 of the compounds inhibiting the kinase reaction was calculated using Prism Graphpad statistical software.
# [3] = Pharmacokinetic properties in mice; format: in vivo
# Protocol: The adopted biological test protocol was: drug metabolism test of the compound on the mouse in vivo.
# In order to verify the […], a representative compound QY-10-40 was selected and the pharmacokinetic properties of the compound in mice (n=3) were tested using single administration by gavage (PO, 10 mg/kg) or intravenous injection (IV, 1 mg/kg).
# [4] = system: TNFα-induced systemic inflammatory response syndrome; test: TNFα-induced systemic inflammatory response syndrome in mice; format: in vivo; settings: gavage 2 mg/kg, 20 min before TNFα tail vein injection
# Protocol: The adopted biological test scheme was: Tail vein injection of tumor necrosis factor TNFα would lead to the occurrence of systemic inflammatory response syndrome in mice, resulting in decreased body temperature and death. The effect of representative compound QY-10-40 on TNFα-induced systemic inflammatory response syndrome was tested, and the change in body temperature and death of mice were monitored.
# Systemic inflammatory response syndrome, also known as inflammatory storm, refers to a systemic non-specific inflammatory response caused by infectious or non-infectious injuries such as severe infection, multiple trauma, burns, ischemia reperfusion, and acute pancreatitis. Under this condition, large amounts of inflammatory factors will release, in severe cases organism will loss the control of inflammatory response, resulting in multi-organ failure and even death.
# Methods: The compounds to be tested were dissolved in 0.5% carboxymethyl cellulose according to the required concentration one day in advance, and sonicated overnight. Each mouse was gavaged with 200 μl. 20 min later, […] was injected through the tail vein. Body temperature changes of mice were monitored by infrared thermometer after injection. The effects of the compounds were calculated using Prism Graphpad statistical software.
# [5] = system: RIPK1^K612R/K612R mutant mice; test: Digestive system inflammation in RIPK1 K612R/K612R mutant mice; format: in vivo; settings: gavage 25 mg/kg, control Nec-1s 50 mg/kg
# Excerpt: The adopted biological test scheme was: RIPK1^K612R/K612R mutant mice were used as model mice to test the effect of representative compound QY-10-40 or QY-13-19 on spontaneous intestinal inflammation.
# K612R mutation leads to decreased in intracellular RIPK1 level but abnormal activation, making it sensitive to programmed necrosis and caspase-1 activation, and responding to TLRs signaling. RIPK1^K612R/K612R mice will appear responses such as age-dependent reduced RIPK1 expression and abnormal activation, spontaneous intestinal inflammation and splenomegaly.
# Methods: The compounds to be tested were dissolved in 0.5% carboxymethyl cellulose according to the required concentration one day in advance, and sonicated overnight. Mice were gavaged in a volume of 0.1 ml/10 g body weight. Body weight was measured three times a week, and samples were collected at the end of the experiment. The effect of the compounds was calculated using Prism Graphpad statistical software.
smiles,measurement,setting,value
Cn1ncc(C(=O)NCc2ccc(-n3cnc4c(N)ncnc43)cc2)c1Cc1ccccc1 [QY-10-40],concentration that essentially completely inhibits TNFα-induced programmed necrosis,[1]; L929 cells,above 1 nM
same,EC50,"[1]; L929 cells, stimulated with TNFα + SM164, read-out: EC50 (μM) L929 cells (mouse) TNFα + SM164",0.00145 µM
same,EC50,"[1]; L929 cells, stimulated with TNFα alone, read-out: EC50 (μM) L929 cells (mouse) TNFα",0.00048 µM
same,inhibition of programmed necrosis (in words),[1]; mouse-derived L929 cells,excellently inhibit the occurrence of programmed necrosis
same,IC50,[2],219 nM
same,bioavailability (F) (in words),"[3]; PO 10 mg/kg, IV 1 mg/kg",better bioavailability
same,half-life (T1/2) (in words),"[3]; PO 10 mg/kg, IV 1 mg/kg",better
same,blood concentrations for most of the time within 24 h,"[3]; gavage 10 mg/kg, single dose, 10 nM = effective inhibitory concentration",> 10 nM
same,time to peak (in words),[3]; single dose (PO 10 mg/kg or IV 1 mg/kg),rapidly reach the peak
same,"effect on TNFα-induced hypothermia, inflammation response and death",[4],"effectively resists against TNFα-induced hypothermia, inflammation response and death"
same,effect on body weight and spleen coefficient,[5],can inhibit the effect of the digestive system inflammation
